We go through 26 compounds from patent publication US11149037B2, “Pyrazole MAGL inhibitors” (H. Lundbeck A/S, priority 2017, dated 2021).

The term IC50 denotes the concentration that inhibits the measured activity by half. Read a high IC50 as lower potency.

Experiment [1] concerns the target MAGL (Homo sapiens (Human), UniProt Q99685). Briefly: In vitro competitive activity-based protein profiling, human proteomes (prefrontal cortex or PC3 cell membrane fractions). Type of experiment: biochemical. To be noted: human proteome; for inhibition at 1 µM: read-out: MAGL % inh. 1 μM (human); for inhibition at 10 µM: read-out: MAGL % inh. (human) @ 10 μM. The protocol: (§1) In Vitro Competitive Activity-Based Protein Profiling.
(§2) Proteomes (mouse brain membrane fraction or cell lysates for mouse assays; human prefrontal cortex or PC3 cell membrane fractions for human assays) (50 μL, 1.0 or 2.0 mg/mL total protein concentration) were preincubated with varying concentrations of inhibitors at 37° C. After 30 min, FP-Rh or JW912 or HT-01 (1.0 μL, 50 μM in DMSO) was added and the mixture was incubated for another 30 min at 37° C. Reactions were quenched with SDS loading buffer (15 μL-4×) and run on SDS-PAGE. Following gel imaging, serine hydrolase activity was determined by measuring fluorescent intensity of gel bands corresponding to MAGL and FAAH using ImageJ 1.43u software.

Experiment [2] has as its target MAGL (Mus musculus (Mouse), UniProt O35678). Briefly: In vitro competitive activity-based protein profiling, mouse proteomes (brain membrane fraction or cell lysates). Type of experiment: biochemical. To be noted: mouse proteome, read-out: MAGL % inh. 1 μM (mouse). The protocol: as §1, §2

Sequence of MAGL (Mus musculus (Mouse), UniProt O35678) (O35678 whole entry): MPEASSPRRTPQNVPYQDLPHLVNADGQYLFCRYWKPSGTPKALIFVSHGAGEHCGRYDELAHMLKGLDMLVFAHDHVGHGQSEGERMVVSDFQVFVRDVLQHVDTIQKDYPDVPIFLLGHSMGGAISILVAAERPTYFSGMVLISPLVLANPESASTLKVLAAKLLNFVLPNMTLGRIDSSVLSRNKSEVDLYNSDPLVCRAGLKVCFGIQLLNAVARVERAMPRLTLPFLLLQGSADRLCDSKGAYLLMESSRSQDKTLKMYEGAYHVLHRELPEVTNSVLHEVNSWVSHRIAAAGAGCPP
Sequence of MAGL (Homo sapiens (Human), UniProt Q99685) (Q99685 whole entry): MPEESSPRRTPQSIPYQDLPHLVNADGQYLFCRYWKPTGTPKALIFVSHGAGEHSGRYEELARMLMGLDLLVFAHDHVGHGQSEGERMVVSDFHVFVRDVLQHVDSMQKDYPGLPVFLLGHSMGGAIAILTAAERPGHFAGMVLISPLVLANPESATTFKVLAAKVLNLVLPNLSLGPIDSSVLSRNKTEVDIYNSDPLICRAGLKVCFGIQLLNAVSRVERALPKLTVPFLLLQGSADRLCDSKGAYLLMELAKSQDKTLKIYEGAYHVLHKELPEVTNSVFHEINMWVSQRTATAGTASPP

As for `C[C@H]1CN(C(=O)n2ccc(NS(C)(=O)=O)n2)CCN1Cc1ccc(Cl)c(N2CCCC2)c1` [Example 42, (S)-N-(1-(4-(4-Chloro-3-(pyrrolidin-1-yl)benzyl)-3-methylpiperazine-1-carbonyl)-1H-pyrazol-3-yl)methanesulfonamide], the inhibition at 1 µM at MAGL [1] and on MAGL [2] was greater than 75% in each case. Turning to `CS(=O)(=O)Nc1ccn(C(=O)N2CCN(Cc3ccc(Cl)c(N4CC5CNCC5C4)c3)CC2)n1` (stereo not shown) [Example 152, N-(1-(4-(4-Chloro-3-(hexahydropyrrolo[3,4-c]pyrrol-2(1H)-yl)benzyl)piperazine-1-carbonyl)-1H-pyrazol-3-yl)methanesulfonamide], the inhibition at 10 µM at MAGL [1] was greater than 75%. For `CS(=O)(=O)Nc1ccn(C(=O)N2CCC3(CCN(Cc4ccccc4)C3)CC2)n1` [Example 165, N-(1-(2-Benzyl-2,8-diazaspiro[4.5]decane-8-carbonyl)-1H-pyrazol-3-yl)methanesulfonamide], the inhibition at 10 µM at MAGL [1] was greater than 75%.

Take `CC(=O)Nc1ccn(C(=O)N2CCC3(CCN(Cc4cccc(C(F)(F)F)c4)C3)CC2)n1` [Example 175, N-(1-(2-(3-(Trifluoromethyl)benzyl)-2,8-diazaspiro[4.5]decane-8-carbonyl)-1H-pyrazol-3-yl)acetamide]: on MAGL [1], the inhibition at 1 µM is greater than 75% and the half-inhibitory concentration (IC50) is less than 0.1 µM. The inhibition at 1 µM on MAGL [2] is greater than 75%. As to `CN(Cc1ccc(Cl)c(N2CC3COCC3C2)c1)C1CCN(C(=O)n2ccc(NS(C)(=O)=O)n2)CC1` (stereo not shown) [Example 177, N-(1-(4-((4-Chloro-3-(tetrahydro-1H-furo[3,4-c]pyrrol-5(3H)-yl)benzyl)(methyl)amino)piperidine-1-carbonyl)-1H-pyrazol-3-yl)methanesulfonamide], the inhibition at 1 µM at MAGL [1] and at MAGL [2] was greater than 75% each time. For the compound `C[C@H]1CN(Cc2ccc(C(F)(F)F)c(N3CC4COCC4C3)c2)CCN1C(=O)n1ccc(NS(C)(=O)=O)n1` (stereo partly drawn) [Example 178, N-(1-((2S)-2-Methyl-4-(3-(tetrahydro-1H-furo[3,4-c]pyrrol-5(3H)-yl)-4-(trifluoromethyl)benzyl)piperazine-1-carbonyl)-1H-pyrazol-3-yl)methanesulfonamide], the inhibition at 1 µM at MAGL [1] and at MAGL [2] was greater than 75% each time. For the same compound, the IC50 on MAGL [1] was less than 0.1 µM.

With `C[C@H]1CN(C(=O)n2ccc(NS(C)(=O)=O)n2)CCN1Cc1ccc(C(F)(F)F)c(N2CC3COCC3C2)c1` (stereo partly drawn) [Example 179, N-(1-((3S)-3-Methyl-4-(3-(tetrahydro-1H-furo[3,4-c]pyrrol-5(3H)-yl)-4-(trifluoromethyl)benzyl)piperazine-1-carbonyl)-1H-pyrazol-3-yl)methanesulfonamide], the inhibition at 1 µM on MAGL [1] and on MAGL [2] was greater than 75% in each case. In addition, the IC50 on MAGL [1] is less than 0.1 µM. Consider `C[C@@H]1CN(Cc2ccc(C(F)(F)F)c(N3CC4COCC4C3)c2)CCN1C(=O)n1ccc(NS(C)(=O)=O)n1` (stereo partly drawn) [Example 180, N-(1-((2R)-2-Methyl-4-(3-(tetrahydro-1H-furo[3,4-c]pyrrol-5(3H)-yl)-4-(trifluoromethyl)benzyl)piperazine-1-carbonyl)-1H-pyrazol-3-yl)methanesulfonamide], for which the inhibition at 1 µM on MAGL [1] and on MAGL [2] was greater than 75% throughout. Besides, at MAGL [1], the IC50 is less than 0.1 µM. On to `C[C@@H]1CN(C(=O)n2ccc(NS(C)(=O)=O)n2)CCN1Cc1ccc(Cl)c(N2CC[C@H](F)C2)c1` [Example 203, N-(1-((R)-4-(4-Chloro-3-((S)-3-fluoropyrrolidin-1-yl)benzyl)-3-methylpiperazine-1-carbonyl)-1H-pyrazol-3-yl)methanesulfonamide], for which, on MAGL [1], the inhibition at 1 µM was greater than 75%. The same measure, in the same setting: under `CS(=O)(=O)Nc1ccn(C(=O)N2CCC3(CCCN3Cc3ccc(Cl)cc3N3CCC(F)CC3)CC2)n1` [Example 204, N-(1-(1-(4-Chloro-2-(4-fluoropiperidin-1-yl)benzyl)-1,8-diazaspiro[4.5]decane-8-carbonyl)-1H-pyrazol-3-yl)methanesulfonamide] stands greater than 75%; under `CS(=O)(=O)Nc1ccn(C(=O)N2CCC3(CCCN3Cc3ccc(Cl)cc3N3CC4COCC4C3)CC2)n1` (stereo not shown) [Example 205, N-(1-(1-(4-Chloro-2-(tetrahydro-1H-furo[3,4-c]pyrrol-5(3H)-yl)benzyl)-1,8-diazaspiro[4.5]decane-8-carbonyl)-1H-pyrazol-3-yl)methanesulfonamide], greater than 75%. The same measure, in the same setting: for `CN(Cc1ccc(Cl)c(N2CCC(F)CC2)c1)C1CCN(C(=O)n2ccc(NS(C)(=O)=O)n2)CC1` [Example 206, N-(1-(4-((4-Chloro-3-(4-fluoropiperidin-1-yl)benzyl)(methyl)amino)piperidine-1-carbonyl)-1H-pyrazol-3-yl)methanesulfonamide] the value was greater than 75%; for `CC(=O)Nc1ccn(C(=O)N2CCN(Cc3ccc(-c4ccccc4)cc3C)C[C@@H]2C)n1` [Example 207, (S)-N-(1-(2-Methyl-4-((3-methyl-[1,1′-biphenyl]-4-yl)methyl)piperazine-1-carbonyl)-1H-pyrazol-3-yl)acetamide], greater than 75%. For `CC(=O)Nc1ccn(C(=O)N2CCN(Cc3ccc(-c4ccccc4)cc3C)C[C@H]2C)n1` [Example 208, (R)-N-(1-(2-Methyl-4-((3-methyl-[1,1′-biphenyl]-4-yl)methyl)piperazine-1-carbonyl)-1H-pyrazol-3-yl)acetamide], at MAGL [1], the inhibition at 1 µM was greater than 75% and the IC50 is less than 0.1 µM. With `CS(=O)(=O)Nc1ccn(C(=O)N2CCN(Cc3ccc(Cl)c(N4CCC(C#N)CC4)c3)CC2)n1` [Example 211, N-(1-(4-(4-Chloro-3-(4-cyano-piperidin-1-yl)benzyl)piperazine-1-carbonyl)-1H-pyrazol-3-yl)methane-sulfonamide], on MAGL [1], the inhibition at 1 µM is greater than 75%. Regarding `CS(=O)(=O)Nc1ccn(C(=O)N2CCN(Cc3ccc(Cl)c(F)c3)CC2)n1` [Example 212, N-(1-(4-(4-Chloro-3-fluorobenzyl)piperazine-1-carbonyl)-1H-pyrazol-3-yl)methane-sulfonamide], the inhibition at 1 µM at MAGL [1] is greater than 75%. With `CC(C)C1CCN(c2cc(CN3CCN(C(=O)n4ccc(NS(C)(=O)=O)n4)CC3)ccc2Cl)CC1` [Example 213, N-(1-(4-(4-Chloro-3-(4-isopropyl-piperidin-1-yl)benzyl)piperazine-1-carbonyl)-1H-pyrazol-3-yl)methane-sulfonamide], the inhibition at 1 µM at MAGL [1] was greater than 75%.

In the case of `CS(=O)(=O)Nc1ccn(C(=O)N2CCN(Cc3ccc(Cl)c(C(F)(F)F)c3)CC2)n1` [Example 214, N-(1-(4-(4-Chloro-3-(trifluoromethyl)benzyl)piperazine-1-carbonyl)-1H-pyrazol-3-yl)methane-sulfonamide], at MAGL [1], the inhibition at 1 µM was greater than 75%. As for `C[C@@H]1CN(C(=O)n2ccc(NS(C)(=O)=O)n2)CCN1Cc1ccc(Cl)c(C2CCCC2)c1` [Example 215, (R)-N-(1-(4-(4-Chloro-3-cyclopentyl-benzyl)-3-methyl-piperazine-1-carbonyl)-1H-pyrazol-3-yl)methane-sulfonamide], the inhibition at 1 µM on MAGL [1] was greater than 75%. For `C[C@H]1CN(C(=O)n2ccc(NS(C)(=O)=O)n2)CCN1Cc1ccc(Cl)c(C2CCCC2)c1` [Example 216, (S)-N-(1-(4-(4-Chloro-3-cyclopentyl-benzyl)-3-methyl-piperazine-1-carbonyl)-1H-pyrazol-3-yl)methane-sulfonamide], the inhibition at 1 µM on MAGL [1] was greater than 75%. Still for that read-out and setting: for `CC(=O)Nc1ccn(C(=O)N2CCC(C)(N(C)Cc3ccc(Cl)c(C)c3)CC2)n1` [Example 217, N-(1-(4-((4-Chloro-3-methylbenzyl) (methyl)amino)-4-methyl-piperidine-1-carbonyl)-1H-pyrazol-3-yl)acetamide] the value was greater than 75%; for `CS(=O)(=O)Nc1ccn(C(=O)N2CCN(Cc3ccc(F)c(OC(F)(F)F)c3)CC2)n1` [Example 218, N-(1-(4-(4-Fluoro-3-(trifluoromethoxy)benzyl)piperazine-1-carbonyl)-1H-pyrazol-3-yl)methane-sulfonamide], greater than 75%; for `CS(=O)(=O)Nc1ccn(C(=O)N2CCN(Cc3cccc(C(F)(F)F)c3Cl)CC2)n1` [Example 219, N-(1-(4-(2-Chloro-3-(trifluoromethyl)benzyl)piperazine-1-carbonyl)-1H-pyrazol-3-yl)methane-sulfonamide], greater than 75%. Same read-out and setting: for `Cc1c(CN2CCN(C(=O)n3ccc(NS(C)(=O)=O)n3)CC2)cccc1C(F)(F)F` [Example 220, N-(1-(4-(2-Methyl-3-(trifluoromethyl)benzyl)piperazine-1-carbonyl)-1H-pyrazol-3-yl)methane-sulfonamide] the value was greater than 75%; for `CS(=O)(=O)Nc1ccn(C(=O)N2CCN(Cc3ccc(OC(F)F)c(OCC4CC4)c3)CC2)n1` [Example 221, N-(1-(4-(3-(Cyclopropyl-methoxy)-4-(difluoro-methoxy)benzyl)piperazine-1-carbonyl)-1H-pyrazol-3-yl)methane-sulfonamide], greater than 75%; for `CS(=O)(=O)Nc1ccn(C(=O)N2CCN(Cc3ccc(F)c(Oc4ccccc4)c3)CC2)n1` [Example 222, N-(1-(4-(4-Fluoro-3-phenoxy-benzyl)piperazine-1-carbonyl)-1H-pyrazol-3-yl)methane-sulfonamide], greater than 75%.
